Test results: ChEMBL document CHEMBL3232779, “Discovery of a potent stapled helix peptide that binds to the 70N domain of replication protein A” (J Med Chem, 2014); call rule not given here
pKd: −log10 of the molar value. Positions of bridges follow the written chain, without caps; N, C: chain ends. Non-standard residues stand in square brackets, D forms with d. Residues, ends and D or L forms follow the SMILES beside them. *: point of attachment. X1 = O=C(O)c1cc(NC(=S)*)ccc1-c1c2ccc(=O)cc-2oc2cc(O)ccc12; Phe(3,4-Cl2) = N[C@@H](Cc1ccc(Cl)c(Cl)c1)C(=O)O; R5 = C=CCCC[C@@](C)(N)C(=O)O

target: T1, Replication protein A 70 kDa DNA-binding subunit (Homo sapiens, UniProt P27694); assay: Binding affinity to recombinant human RPA70 A/B region (181 to 422 amino acids) expressed in Escherichia coli Rosetta by fluorescence polarization anisotropy assay
T1 sequence (P27694 whole entry, the tested form may be a part): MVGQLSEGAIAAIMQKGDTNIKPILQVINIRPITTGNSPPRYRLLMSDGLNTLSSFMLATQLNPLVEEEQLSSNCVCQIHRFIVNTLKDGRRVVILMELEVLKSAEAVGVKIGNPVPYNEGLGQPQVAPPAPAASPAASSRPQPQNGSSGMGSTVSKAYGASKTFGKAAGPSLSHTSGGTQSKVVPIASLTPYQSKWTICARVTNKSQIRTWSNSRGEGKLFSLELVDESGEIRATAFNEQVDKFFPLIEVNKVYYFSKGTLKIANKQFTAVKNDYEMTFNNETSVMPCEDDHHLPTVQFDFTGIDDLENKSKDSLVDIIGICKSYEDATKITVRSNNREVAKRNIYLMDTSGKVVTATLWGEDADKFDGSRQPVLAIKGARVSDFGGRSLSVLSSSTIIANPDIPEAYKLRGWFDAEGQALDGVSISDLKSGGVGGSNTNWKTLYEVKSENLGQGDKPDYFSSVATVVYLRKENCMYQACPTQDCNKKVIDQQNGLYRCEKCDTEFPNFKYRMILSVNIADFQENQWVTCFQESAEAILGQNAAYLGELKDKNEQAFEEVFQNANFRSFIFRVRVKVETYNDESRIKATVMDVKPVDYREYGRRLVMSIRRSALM

Row | Molecule | pKd
1 | CC(C)C[C@H](NC(=O)[C@H](C)NC(=O)[C@H](Cc1ccccc1)NC(=O)[C@H](Cc1c[nH]c2ccccc12)NC(=O)[C@@]1(C)CCC/C=C\CCC[C@@](C)(NC(=O)[C@H](C)NC(=O)[C@@H](NC(=O)[C@H](Cc2ccccc2)NC(=O)[C@H](CC(N)=O)NC(=S)Nc2ccc(-c3c4ccc(=O)cc-4oc4cc(O)ccc34)c(C(=O)O)c2)[C@@H](C)O)C(=O)N[C@@H](CC(N)=O)C(=O)N[C@@H](CC(C)C)C(=O)N[C@@H](CCC(=O)O)C(=O)N1)C(=O)O (X1-NFTA[R5]NLE[R5]WFAL-OH; staple (Z) 5-9) | 4.92

target: not listed separately; assay: Binding affinity to recombinant human RPA70C/32D/14 by fluorescence polarization anisotropy assay

Row | Molecule | pKd
2 | CC(C)C[C@H](NC(=O)[C@H](C)NC(=O)[C@H](Cc1ccccc1)NC(=O)[C@H](Cc1c[nH]c2ccccc12)NC(=O)[C@@]1(C)CCC/C=C\CCC[C@@](C)(NC(=O)[C@H](C)NC(=O)[C@@H](NC(=O)[C@H](Cc2ccccc2)NC(=O)[C@H](CC(N)=O)NC(=S)Nc2ccc(-c3c4ccc(=O)cc-4oc4cc(O)ccc34)c(C(=O)O)c2)[C@@H](C)O)C(=O)N[C@@H](CC(N)=O)C(=O)N[C@@H](CC(C)C)C(=O)N[C@@H](CCC(=O)O)C(=O)N1)C(=O)O (X1-NFTA[R5]NLE[R5]WFAL-OH; staple (Z) 5-9) | 4.92

tested on: U2OS; assay: Cellular uptake in human U2OS cells after 24 hrs by confocal microscopy; format: ADME, cell-based

Row | Molecule | Drug uptake
3 | CC(C)C[C@H](NC(=O)[C@H](C)NC(=O)[C@H](Cc1ccccc1)NC(=O)[C@H](Cc1c[nH]c2ccccc12)NC(=O)[C@@]1(C)CCC/C=C\CCC[C@@](C)(NC(=O)[C@H](C)NC(=O)[C@@H](NC(=O)[C@H](Cc2ccccc2)NC(=O)[C@H](CC(=O)O)NC(=S)Nc2ccc(-c3c4ccc(=O)cc-4oc4cc(O)ccc34)c(C(=O)O)c2)[C@@H](C)O)C(=O)N[C@@H](CC(=O)O)C(=O)N[C@@H](CC(C)C)C(=O)N[C@@H](CCC(=O)O)C(=O)N1)C(=O)O (X1-DFTA[R5]DLE[R5]WFAL-OH; staple (Z) 5-9) | Not Active
4 | CC(C)C[C@H](NC(=O)[C@H](C)NC(=O)[C@H](Cc1ccccc1)NC(=O)[C@H](Cc1c[nH]c2ccccc12)NC(=O)[C@@]1(C)CCC/C=C\CCC[C@@](C)(NC(=O)[C@H](C)NC(=O)[C@@H](NC(=O)[C@H](Cc2ccccc2)NC(=O)[C@H](CC(=O)O)NC(=S)Nc2ccc(-c3c4ccc(=O)cc-4oc4cc(O)ccc34)c(C(=O)O)c2)[C@@H](C)O)C(=O)N[C@@H](CC(N)=O)C(=O)N[C@@H](CC(C)C)C(=O)N[C@@H](CCC(=O)O)C(=O)N1)C(=O)O (X1-DFTA[R5]NLE[R5]WFAL-OH; staple (Z) 5-9) | Active
5 | CC(C)C[C@H](NC(=O)[C@H](C)NC(=O)[C@H](Cc1ccccc1)NC(=O)[C@H](Cc1c[nH]c2ccccc12)NC(=O)[C@@]1(C)CCC/C=C\CCC[C@@](C)(NC(=O)[C@H](C)NC(=O)[C@@H](NC(=O)[C@H](Cc2ccccc2)NC(=O)[C@H](CC(N)=O)NC(=S)Nc2ccc(-c3c4ccc(=O)cc-4oc4cc(O)ccc34)c(C(=O)O)c2)[C@@H](C)O)C(=O)N[C@@H](CC(N)=O)C(=O)N[C@@H](CC(C)C)C(=O)N[C@@H](CCC(=O)O)C(=O)N1)C(=O)O (X1-NFTA[R5]NLE[R5]WFAL-OH; staple (Z) 5-9) | Active

target: T1, Replication protein A 70 kDa DNA-binding subunit

Row | Molecule | pKd
6 | Ac-DFTADALEEWFALAS-NH2 | 4.55
7 | CC(C)C[C@H](NC(=O)[C@H](C)NC(=O)[C@H](Cc1ccc(Cl)c(Cl)c1)NC(=O)[C@H](Cc1c[nH]c2ccccc12)NC(=O)[C@H](CCC(=O)O)NC(=O)[C@H](CCC(=O)O)NC(=O)[C@H](CC(C)C)NC(=O)[C@H](CC(=O)O)NC(=O)[C@H](CC(=O)O)NC(=O)[C@H](C)NC(=O)[C@@H](NC(=O)[C@H](Cc1ccccc1)NC(=O)[C@H](CC(=O)O)NC(=S)Nc1ccc(-c2c3ccc(=O)cc-3oc3cc(O)ccc23)c(C(=O)O)c1)[C@@H](C)O)C(N)=O (X1-DFTADDLEEW[Phe(3,4-Cl2)]AL-NH2) | 7.66
8 | Ac-DFTADDLEAWFALAS-NH2 | 5.62
9 | Ac-DFTADDLEEWFALAS-NH2 | 5.92
10 | CC(C)C[C@H](NC(=O)[C@H](C)NC(=O)[C@H](Cc1ccccc1)NC(=O)[C@H](Cc1c[nH]c2ccccc12)NC(=O)[C@@]1(C)CCC/C=C\CCC[C@@](C)(NC(=O)[C@H](C)NC(=O)[C@@H](NC(=O)[C@H](Cc2ccccc2)NC(=O)[C@H](CC(=O)O)NC(=S)Nc2ccc(-c3c4ccc(=O)cc-4oc4cc(O)ccc34)c(C(=O)O)c2)[C@@H](C)O)C(=O)N[C@@H](CC(=O)O)C(=O)N[C@@H](CC(C)C)C(=O)N[C@@H](CCC(=O)O)C(=O)N1)C(=O)O (X1-DFTA[R5]DLE[R5]WFAL-OH; staple (Z) 5-9) | 6.24
11 | CC(C)C[C@H](NC(=O)[C@H](C)NC(=O)[C@H](Cc1ccc(Cl)c(Cl)c1)NC(=O)[C@H](Cc1c[nH]c2ccccc12)NC(=O)[C@@]1(C)CCC/C=C\CCC[C@@](C)(NC(=O)[C@H](C)NC(=O)[C@@H](NC(=O)[C@H](Cc2ccccc2)NC(=O)[C@H](CC(N)=O)NC(=S)Nc2ccc(-c3c4ccc(=O)cc-4oc4cc(O)ccc34)c(C(=O)O)c2)[C@@H](C)O)C(=O)N[C@@H](CC(=O)O)C(=O)N[C@@H](CC(C)C)C(=O)N[C@@H](CCC(=O)O)C(=O)N1)C(=O)O (X1-NFTA[R5]DLE[R5]W[Phe(3,4-Cl2)]AL-OH; staple (Z) 5-9) | 7.32
12 | Ac-DFTADDLEQWFALAS-NH2 | 5.59
13 | Ac-DFTANDLEEWFALAS-NH2 | 4.72
14 | CC(C)C[C@H](NC(=O)[C@H](C)NC(=O)[C@H](Cc1ccccc1)NC(=O)[C@H](Cc1c[nH]c2ccccc12)NC(=O)[C@H](CCC(=O)O)NC(=O)[C@H](CCC(=O)O)NC(=O)[C@H](CC(C)C)NC(=O)[C@H](CC(=O)O)NC(=O)[C@H](CC(=O)O)NC(=O)[C@H](C)NC(=O)[C@@H](NC(=O)[C@H](Cc1ccccc1)NC(=O)[C@H](CC(=O)O)NC(=S)Nc1ccc(-c2c3ccc(=O)cc-3oc3cc(O)ccc23)c(C(=O)O)c1)[C@@H](C)O)C(N)=O (X1-DFTADDLEEWFAL-NH2) | 6.48
15 | Ac-DFTADDLEELDTAAS-NH2 | 4.20
16 | Ac-DFTAADLEELDTLAS-NH2 | 4.51
17 | Ac-DFTADDAEELDTLAS-NH2 | 3.76
18 | Ac-DFTADNLEEWFALAS-NH2 | 5.16
19 | Ac-DFTAADLEEWFALAS-NH2 | 5.64
20 | CC(C)C[C@H](NC(=O)[C@H](C)NC(=O)[C@H](Cc1ccccc1)NC(=O)[C@H](Cc1c[nH]c2ccccc12)NC(=O)[C@@]1(C)CCC/C=C\CCC[C@@](C)(NC(=O)[C@H](C)NC(=O)[C@@H](NC(=O)[C@H](Cc2ccccc2)NC(=O)[C@H](CC(=O)O)NC(=S)Nc2ccc(-c3c4ccc(=O)cc-4oc4cc(O)ccc34)c(C(=O)O)c2)[C@@H](C)O)C(=O)N[C@@H](CC(N)=O)C(=O)N[C@@H](CC(C)C)C(=O)N[C@@H](CCC(=O)O)C(=O)N1)C(=O)O (X1-DFTA[R5]NLE[R5]WFAL-OH; staple (Z) 5-9) | 5.43
21 | CC(C)C[C@H](NC(=O)[C@H](C)NC(=O)[C@H](Cc1ccccc1)NC(=O)[C@H](Cc1c[nH]c2ccccc12)NC(=O)[C@@]1(C)CCC/C=C\CCC[C@@](C)(NC(=O)[C@H](C)NC(=O)[C@@H](NC(=O)[C@H](Cc2ccccc2)NC(=O)[C@H](CC(N)=O)NC(=S)Nc2ccc(-c3c4ccc(=O)cc-4oc4cc(O)ccc34)c(C(=O)O)c2)[C@@H](C)O)C(=O)N[C@@H](CC(=O)O)C(=O)N[C@@H](CC(C)C)C(=O)N[C@@H](CCC(=O)O)C(=O)N1)C(=O)O (X1-NFTA[R5]DLE[R5]WFAL-OH; staple (Z) 5-9) | 5.82
22 | CC(C)C[C@H](NC(=O)[C@H](C)NC(=O)[C@H](Cc1ccccc1)NC(=O)[C@H](Cc1c[nH]c2ccccc12)NC(=O)[C@@]1(C)CCC/C=C\CCC[C@@](C)(NC(=O)[C@H](C)NC(=O)[C@@H](NC(=O)[C@H](Cc2ccccc2)NC(=O)[C@H](CC(N)=O)NC(=S)Nc2ccc(-c3c4ccc(=O)cc-4oc4cc(O)ccc34)c(C(=O)O)c2)[C@@H](C)O)C(=O)N[C@@H](CC(N)=O)C(=O)N[C@@H](CC(C)C)C(=O)N[C@@H](CCC(=O)O)C(=O)N1)C(=O)O (X1-NFTA[R5]NLE[R5]WFAL-OH; staple (Z) 5-9) | 5.13
23 | Ac-NFTADDLEEWFALAS-NH2 | 5.24
24 | Ac-DFTADDLAEWFALAS-NH2 | 4.55

Now from value to molecule:

Row | pKd | Molecule
25 | 4.59 | Ac-DFTADDLEELDTLAA-NH2
26 | 3.82 | Ac-AFTADDLEELDTLAS-NH2
27 | 4.68 | CC(C)C[C@H](NC(=O)[C@H](C)NC(=O)[C@H](Cc1ccccc1)NC(=O)[C@H](Cc1c[nH]c2ccccc12)NC(=O)[C@H](C)NC(=O)[C@H](CCC(=O)O)NC(=O)[C@H](CC(C)C)NC(=O)[C@H](CC(N)=O)NC(=O)[C@H](C)NC(=O)[C@H](C)NC(=O)[C@@H](NC(=O)[C@H](Cc1ccccc1)NC(=O)[C@H](CC(N)=O)NC(=S)Nc1ccc(-c2c3ccc(=O)cc-3oc3cc(O)ccc23)c(C(=O)O)c1)[C@@H](C)O)C(=O)N[C@@H](C)C(=O)N[C@@H](CO)C(N)=O (X1-NFTAANLEAWFALAS-NH2)
28 | 3.65 | Ac-DFTADALEELDTLAS-NH2
29 | 4.07 | Ac-DFTADDLEELATLAS-NH2
30 | 4.66 | Ac-DFTADDLEELFTLAS-NH2
31 | 6.24 | CC(C)C[C@H](NC(=O)[C@H](C)NC(=O)[C@H](Cc1ccccc1)NC(=O)[C@H](Cc1c[nH]c2ccccc12)NC(=O)[C@H](CCC(=O)O)NC(=O)[C@H](CCC(=O)O)NC(=O)[C@H](CC(C)C)NC(=O)[C@H](CC(=O)O)NC(=O)[C@H](CC(=O)O)NC(=O)[C@H](C)NC(=O)[C@@H](NC(=O)[C@H](Cc1ccccc1)NC(=O)[C@H](CC(=O)O)NC(=S)Nc1ccc(-c2c3ccc(=O)cc-3oc3cc(O)ccc23)c(C(=O)O)c1)[C@@H](C)O)C(=O)N[C@@H](C)C(N)=O (X1-DFTADDLEEWFALA-NH2)
32 | 3.86 | Ac-DFTADDLEEWDTLAS-NH2
33 | 4.77 | Ac-DFTADDLEELDALAS-NH2
34 | 5.19 | CC(C)C[C@H](NC(=O)[C@H](CC(=O)O)NC(=O)[C@H](CC(=O)O)NC(=O)[C@H](C)NC(=O)[C@@H](NC(=O)[C@H](Cc1ccccc1)NC(=O)[C@H](CC(=O)O)NC(=S)Nc1ccc(-c2c3ccc(=O)cc-3oc3cc(O)ccc23)c(C(=O)O)c1)[C@@H](C)O)C(=O)N[C@@H](CCC(=O)O)C(=O)N[C@@H](CCC(=O)O)C(=O)N[C@@H](CC(C)C)C(=O)N[C@@H](CC(=O)O)C(=O)N[C@H](C(=O)N[C@@H](CC(C)C)C(=O)N[C@@H](C)C(=O)N[C@@H](CO)C(N)=O)[C@@H](C)O (X1-DFTADDLEELDTLAS-NH2)
35 | 3.82 | Ac-DFAADDLEELDTLAS-NH2
36 | 6.04 | CC(C)C[C@H](NC(=O)[C@H](CC(=O)O)NC(=O)[C@H](CC(=O)O)NC(=O)[C@H](C)NC(=O)[C@@H](NC(=O)[C@H](Cc1ccccc1)NC(=O)[C@H](CC(=O)O)NC(=S)Nc1ccc(-c2c3ccc(=O)cc-3oc3cc(O)ccc23)c(C(=O)O)c1)[C@@H](C)O)C(=O)N[C@@H](CCC(=O)O)C(=O)N[C@@H](CCC(=O)O)C(=O)N[C@@H](Cc1c[nH]c2ccccc12)C(=O)N[C@@H](Cc1ccccc1)C(=O)N[C@@H](C)C(N)=O (X1-DFTADDLEEWFA-NH2)
37 | 4.37 | Ac-DFTADDLAEWFTLAS-NH2
38 | 5.57 | Ac-DFTADDLEEWFTLAS-NH2
39 | 3.71 | Ac-DFTADDLEEADTLAS-NH2
40 | 4.66 | Ac-DFTADDLAELDTLAS-OH
41 | 4.70 | Ac-DFTADDLAELDALAS-NH2
42 | 3.78 | Ac-DFTADDLEALDTLAS-NH2
